Measurements: ChEMBL document CHEMBL1201862, “PubChem BioAssay data set” (2004)
Blank lines part the entries; values can stand above or below the compound they belong to. The source made the active and inactive calls.

What was measured:
[1] = control 3'UTR Renilla luciferase suppression, dose response, counter-screen for Shn3 inhibitor project, cell-based, Clone20-Shn3RL, cherry-picked (AID 624133); type: functional
[2] = Shn3 3'UTR reporter inhibitors, dose response, cell-based, Clone20 osteoblasts, firefly luciferase, cherry-picked (AID 624132); type: functional;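 note: firefly luciferase luminescence from reporter carrying the Shn3 3'UTR in osteoblasts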
[3] = NIH-3T3 fibroblast cytotoxicity, dose response, cytotoxicity control, cell-based, fluorescence, Alamar Blue, secondary assay (AID 2327); type: functional;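 note: NIH-3T3 mouse fibroblasts cultured with fluconazole at 8 µg/mL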
Paired box protein Pax-8 = Paired box protein Pax-8 (Homo sapiens, UniProt Q06710); test: inhibitors of PAX8-driven TPO luciferase reporter, dose response, RMG-I cells, cherry-pick (AID 687027); type: functional, cell-based;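 note: luciferase reporter driven by Pax8 target thyroperoxidase promoter measured by SteadyGlo luminescence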
[4] = target: Cell division cycle 7-related protein kinase (Homo sapiens, UniProt O00311); type: functional;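 note: value obtained from a kinome-wide kinase panel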
Sequence of Cell division cycle 7-related protein kinase (O00311 whole entry): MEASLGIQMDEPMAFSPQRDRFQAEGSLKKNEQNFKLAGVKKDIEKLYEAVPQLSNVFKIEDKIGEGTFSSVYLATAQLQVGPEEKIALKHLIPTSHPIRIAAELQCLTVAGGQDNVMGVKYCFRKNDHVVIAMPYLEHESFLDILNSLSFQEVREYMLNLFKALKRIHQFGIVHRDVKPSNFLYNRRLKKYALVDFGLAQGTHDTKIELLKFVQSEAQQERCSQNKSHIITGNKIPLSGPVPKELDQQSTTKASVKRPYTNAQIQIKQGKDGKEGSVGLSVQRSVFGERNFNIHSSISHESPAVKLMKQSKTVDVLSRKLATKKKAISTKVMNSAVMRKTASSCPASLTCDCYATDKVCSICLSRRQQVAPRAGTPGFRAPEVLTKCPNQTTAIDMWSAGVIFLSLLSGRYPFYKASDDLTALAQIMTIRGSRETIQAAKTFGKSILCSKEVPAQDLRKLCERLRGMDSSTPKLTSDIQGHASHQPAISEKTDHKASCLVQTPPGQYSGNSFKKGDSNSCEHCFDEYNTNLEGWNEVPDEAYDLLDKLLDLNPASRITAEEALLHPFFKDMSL

[5] = target: Serine/threonine-protein kinase PLK1 (Homo sapiens, UniProt P53350); type: functional;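 note: PLK1 measured as one member of a kinome-wide profiling panel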
[6] = target: 3-phosphoinositide-dependent protein kinase 1 (Homo sapiens, UniProt O15530); type: functional;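 note: value comes from the Navigating the Kinome panel, PDPK1 member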
Sequence of 3-phosphoinositide-dependent protein kinase 1 (O15530 whole entry): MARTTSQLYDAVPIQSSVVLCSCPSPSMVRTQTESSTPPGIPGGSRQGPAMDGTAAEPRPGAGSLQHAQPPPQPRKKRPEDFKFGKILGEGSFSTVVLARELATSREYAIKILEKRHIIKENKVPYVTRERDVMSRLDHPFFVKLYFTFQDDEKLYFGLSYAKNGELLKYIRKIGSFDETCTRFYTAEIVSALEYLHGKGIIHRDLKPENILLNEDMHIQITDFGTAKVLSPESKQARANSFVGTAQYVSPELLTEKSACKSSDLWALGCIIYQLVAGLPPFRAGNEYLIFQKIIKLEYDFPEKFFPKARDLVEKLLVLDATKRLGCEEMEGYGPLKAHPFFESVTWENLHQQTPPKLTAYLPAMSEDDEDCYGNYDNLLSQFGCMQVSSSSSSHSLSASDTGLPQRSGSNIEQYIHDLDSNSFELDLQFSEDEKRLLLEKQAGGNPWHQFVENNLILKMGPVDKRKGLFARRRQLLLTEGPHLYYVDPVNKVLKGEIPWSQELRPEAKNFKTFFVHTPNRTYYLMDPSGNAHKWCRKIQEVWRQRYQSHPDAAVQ

[7] = target: BDNF/NT-3 growth factors receptor (Homo sapiens, UniProt Q16620); type: functional;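 note: NTRK2 measured as one member of a broad kinome-wide kinase profiling panel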
[8] = target: Inhibitor of nuclear factor kappa-B kinase subunit alpha (Homo sapiens, UniProt O15111); type: functional
[9] = target: Cyclin-dependent kinase 5 (Homo sapiens, UniProt Q00535); type: functional;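 note: CDK5 measured as one member of a kinase profiling panel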
Sequence of Cyclin-dependent kinase 5 (Q00535 whole entry): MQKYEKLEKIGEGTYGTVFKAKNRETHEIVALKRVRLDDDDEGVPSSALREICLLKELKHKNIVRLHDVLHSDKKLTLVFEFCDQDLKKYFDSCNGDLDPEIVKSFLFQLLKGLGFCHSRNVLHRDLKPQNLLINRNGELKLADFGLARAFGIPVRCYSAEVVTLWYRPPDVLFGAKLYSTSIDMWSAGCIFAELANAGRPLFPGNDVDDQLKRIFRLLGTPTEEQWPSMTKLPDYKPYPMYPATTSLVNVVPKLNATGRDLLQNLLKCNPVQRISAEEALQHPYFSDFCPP

[10] = target: Protein kinase C gamma type (Homo sapiens, UniProt P05129); type: functional
[11] = target: Fibroblast growth factor receptor 3 (Homo sapiens, UniProt P22607); type: functional
[12] = target: Serine/threonine-protein kinase TAO1 (Homo sapiens, UniProt Q7L7X3); type: functional
[13] = target: Dual specificity tyrosine-phosphorylation-regulated kinase 1A (Homo sapiens, UniProt Q13627); type: functional;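 note: measured against DYRK1A as one member of a broad kinome profiling panel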
[14] = target: Mitogen-activated protein kinase kinase kinase 20 (Homo sapiens, UniProt Q9NYL2); type: functional
[15] = target: Ribosomal protein S6 kinase alpha-3 (Homo sapiens, UniProt P51812); type: functional;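 note: measured within a kinome-wide profiling panel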
[16] = target: Testis-specific serine/threonine-protein kinase 2 (Homo sapiens, UniProt Q96PF2); type: functional;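 note: part of the Navigating the Kinome panel, target entry STK22B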
[17] = target: Casein kinase I isoform alpha (Homo sapiens, UniProt P48729); type: functional
Sequence of Casein kinase I isoform alpha (P48729 whole entry, canonical isoform): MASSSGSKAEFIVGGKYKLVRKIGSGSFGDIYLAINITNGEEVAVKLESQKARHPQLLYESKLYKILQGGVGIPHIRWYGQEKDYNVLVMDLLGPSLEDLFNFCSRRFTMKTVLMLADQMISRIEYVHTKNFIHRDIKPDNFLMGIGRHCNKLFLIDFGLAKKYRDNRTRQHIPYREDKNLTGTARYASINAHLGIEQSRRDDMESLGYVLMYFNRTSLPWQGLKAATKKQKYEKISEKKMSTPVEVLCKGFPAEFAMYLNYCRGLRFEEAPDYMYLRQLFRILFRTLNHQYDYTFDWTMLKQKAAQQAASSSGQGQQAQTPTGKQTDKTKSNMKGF

[18] = target: Interleukin-1 receptor-associated kinase 4 (Homo sapiens, UniProt Q9NWZ3); type: functional
Sequence of Interleukin-1 receptor-associated kinase 4 (Q9NWZ3 whole entry): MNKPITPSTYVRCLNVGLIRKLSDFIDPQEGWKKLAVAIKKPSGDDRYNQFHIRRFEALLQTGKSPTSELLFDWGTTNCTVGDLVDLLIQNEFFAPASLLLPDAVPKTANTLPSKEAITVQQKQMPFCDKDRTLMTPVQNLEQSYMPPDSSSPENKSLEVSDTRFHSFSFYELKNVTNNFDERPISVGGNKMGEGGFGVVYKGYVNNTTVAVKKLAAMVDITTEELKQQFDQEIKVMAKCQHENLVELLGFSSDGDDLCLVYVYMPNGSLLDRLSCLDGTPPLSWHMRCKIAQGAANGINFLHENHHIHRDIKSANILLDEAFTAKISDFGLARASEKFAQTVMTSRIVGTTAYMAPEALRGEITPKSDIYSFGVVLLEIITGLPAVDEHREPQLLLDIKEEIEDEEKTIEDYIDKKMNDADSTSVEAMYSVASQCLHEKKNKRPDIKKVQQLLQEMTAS

[19] = target: Mitogen-activated protein kinase 1 (Homo sapiens, UniProt P28482); type: functional
Sequence of Mitogen-activated protein kinase 1 (P28482 whole entry): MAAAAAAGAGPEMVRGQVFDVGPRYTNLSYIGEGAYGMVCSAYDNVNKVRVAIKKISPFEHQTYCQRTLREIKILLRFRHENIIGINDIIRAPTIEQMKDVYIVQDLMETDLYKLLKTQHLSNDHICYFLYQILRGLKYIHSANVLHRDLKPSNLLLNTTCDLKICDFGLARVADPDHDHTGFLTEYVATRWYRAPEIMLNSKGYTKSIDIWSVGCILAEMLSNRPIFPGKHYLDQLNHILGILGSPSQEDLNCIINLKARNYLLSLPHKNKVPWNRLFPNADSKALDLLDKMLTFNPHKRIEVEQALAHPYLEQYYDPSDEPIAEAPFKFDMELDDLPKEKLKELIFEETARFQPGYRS

[20] = target: Insulin-like growth factor 1 receptor (Homo sapiens, UniProt P08069); test: Navigating the Kinome. Panel member name: IGF1R; type: functional
[21] = target: Serine/threonine-protein kinase D2 (Homo sapiens, UniProt Q9BZL6); type: functional;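 note: measured against PRKD2 as one member of a kinome-wide kinase profiling panel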
[22] = target: Serine/threonine-protein kinase MRCK alpha (Homo sapiens, UniProt Q5VT25); type: functional
Sequence of Serine/threonine-protein kinase MRCK alpha (Q5VT25 whole entry): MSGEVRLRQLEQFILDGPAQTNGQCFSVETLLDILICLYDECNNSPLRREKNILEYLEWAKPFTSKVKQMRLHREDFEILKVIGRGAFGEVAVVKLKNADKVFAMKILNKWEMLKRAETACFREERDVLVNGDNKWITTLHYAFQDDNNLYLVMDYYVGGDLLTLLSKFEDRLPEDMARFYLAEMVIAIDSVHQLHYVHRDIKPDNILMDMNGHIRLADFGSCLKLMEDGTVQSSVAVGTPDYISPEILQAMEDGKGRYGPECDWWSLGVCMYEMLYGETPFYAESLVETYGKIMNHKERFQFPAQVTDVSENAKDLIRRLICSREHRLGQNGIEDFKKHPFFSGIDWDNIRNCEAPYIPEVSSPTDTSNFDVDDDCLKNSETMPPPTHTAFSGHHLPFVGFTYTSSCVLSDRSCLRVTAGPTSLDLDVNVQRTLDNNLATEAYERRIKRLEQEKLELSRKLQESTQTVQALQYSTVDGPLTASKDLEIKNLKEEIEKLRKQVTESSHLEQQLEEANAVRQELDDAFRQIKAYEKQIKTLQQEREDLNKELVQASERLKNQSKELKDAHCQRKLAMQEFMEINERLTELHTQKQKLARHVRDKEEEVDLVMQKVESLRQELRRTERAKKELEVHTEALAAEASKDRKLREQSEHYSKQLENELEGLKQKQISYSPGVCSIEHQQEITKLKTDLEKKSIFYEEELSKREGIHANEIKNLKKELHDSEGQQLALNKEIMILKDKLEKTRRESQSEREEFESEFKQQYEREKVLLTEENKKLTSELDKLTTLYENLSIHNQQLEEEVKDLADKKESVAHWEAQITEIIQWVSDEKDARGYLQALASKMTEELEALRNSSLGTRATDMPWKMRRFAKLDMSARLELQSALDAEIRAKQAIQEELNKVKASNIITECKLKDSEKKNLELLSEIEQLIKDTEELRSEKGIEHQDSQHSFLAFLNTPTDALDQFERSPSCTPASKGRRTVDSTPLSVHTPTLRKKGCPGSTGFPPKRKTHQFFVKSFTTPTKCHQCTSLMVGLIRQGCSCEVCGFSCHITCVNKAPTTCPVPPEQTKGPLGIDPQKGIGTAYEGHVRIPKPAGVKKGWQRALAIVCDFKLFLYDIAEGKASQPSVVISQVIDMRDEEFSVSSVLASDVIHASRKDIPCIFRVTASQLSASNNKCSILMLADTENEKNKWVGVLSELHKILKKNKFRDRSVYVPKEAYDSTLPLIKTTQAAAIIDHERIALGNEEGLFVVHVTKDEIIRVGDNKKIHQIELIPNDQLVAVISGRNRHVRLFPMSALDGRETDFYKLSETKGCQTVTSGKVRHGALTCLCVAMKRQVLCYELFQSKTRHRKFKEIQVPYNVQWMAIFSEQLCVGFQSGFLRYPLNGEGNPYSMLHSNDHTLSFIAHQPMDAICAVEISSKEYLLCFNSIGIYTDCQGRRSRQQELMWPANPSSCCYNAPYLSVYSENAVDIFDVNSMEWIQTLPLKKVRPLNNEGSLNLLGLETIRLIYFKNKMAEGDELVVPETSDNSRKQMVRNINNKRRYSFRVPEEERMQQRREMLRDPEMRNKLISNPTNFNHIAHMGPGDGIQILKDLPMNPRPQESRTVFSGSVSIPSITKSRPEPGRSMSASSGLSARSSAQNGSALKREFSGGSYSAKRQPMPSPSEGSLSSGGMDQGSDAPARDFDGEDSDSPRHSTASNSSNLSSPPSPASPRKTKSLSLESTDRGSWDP

Caspase-7 = target: T1, Caspase-7 (Homo sapiens, UniProt P55210); test: human caspase-7 inhibitors, dose response, selectivity assay for caspase-6 inhibitor project, biochemical, DEVD-R110 fluorescence, cherry-pick (AID 743295)
T1 sequence (P55210 whole entry): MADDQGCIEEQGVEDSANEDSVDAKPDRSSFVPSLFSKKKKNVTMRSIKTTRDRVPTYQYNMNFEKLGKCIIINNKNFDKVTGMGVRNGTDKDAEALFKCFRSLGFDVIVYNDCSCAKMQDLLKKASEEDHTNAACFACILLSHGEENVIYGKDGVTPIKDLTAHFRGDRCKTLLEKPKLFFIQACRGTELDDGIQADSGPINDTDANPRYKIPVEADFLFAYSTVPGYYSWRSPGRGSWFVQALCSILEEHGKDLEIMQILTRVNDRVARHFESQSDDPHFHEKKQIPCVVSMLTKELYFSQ

Vero = Vero cell cytotoxicity, cytotoxicity control for flavivirus capping enzyme inhibitors (AID 588742); type: functional; details: Chlorocebus sabaeus
[23] = target: T2, Sentrin-specific protease 7 (Homo sapiens, UniProt Q9BQF6); type: functional;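 note: Luminescence-based dose-response confirmation of ultra-high-throughput screening hits, measuring inhibition of SENP7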
T2 sequence (Q9BQF6 whole entry): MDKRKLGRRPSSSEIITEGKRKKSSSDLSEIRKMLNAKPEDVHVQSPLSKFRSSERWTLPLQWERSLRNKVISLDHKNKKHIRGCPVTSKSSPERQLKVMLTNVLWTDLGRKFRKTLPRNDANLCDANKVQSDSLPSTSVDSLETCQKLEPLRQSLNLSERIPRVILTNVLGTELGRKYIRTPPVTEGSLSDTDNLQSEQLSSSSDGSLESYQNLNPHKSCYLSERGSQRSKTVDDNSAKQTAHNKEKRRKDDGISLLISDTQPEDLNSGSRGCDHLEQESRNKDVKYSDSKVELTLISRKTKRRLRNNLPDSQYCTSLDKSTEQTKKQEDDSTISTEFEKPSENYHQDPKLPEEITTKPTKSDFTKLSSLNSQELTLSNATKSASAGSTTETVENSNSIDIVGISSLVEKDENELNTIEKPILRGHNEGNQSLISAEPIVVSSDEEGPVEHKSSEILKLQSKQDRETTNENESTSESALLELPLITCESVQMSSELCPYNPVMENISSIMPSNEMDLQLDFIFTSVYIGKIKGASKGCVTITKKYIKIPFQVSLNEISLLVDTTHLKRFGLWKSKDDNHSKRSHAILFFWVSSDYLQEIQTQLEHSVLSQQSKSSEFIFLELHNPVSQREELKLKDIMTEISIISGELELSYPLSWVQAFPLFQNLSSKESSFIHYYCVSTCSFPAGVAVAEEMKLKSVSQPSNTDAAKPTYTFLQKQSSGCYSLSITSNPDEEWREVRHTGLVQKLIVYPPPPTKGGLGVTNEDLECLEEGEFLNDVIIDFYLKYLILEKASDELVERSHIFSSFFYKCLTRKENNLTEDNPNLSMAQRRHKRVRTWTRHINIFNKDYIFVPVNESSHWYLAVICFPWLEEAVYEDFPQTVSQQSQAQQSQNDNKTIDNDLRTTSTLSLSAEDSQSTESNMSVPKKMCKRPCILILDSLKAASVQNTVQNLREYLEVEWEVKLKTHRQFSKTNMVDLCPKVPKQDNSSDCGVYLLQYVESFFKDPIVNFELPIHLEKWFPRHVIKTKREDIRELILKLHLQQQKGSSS

[24] = target: Serine/threonine-protein phosphatase PP1-alpha catalytic subunit (Homo sapiens, UniProt P62136); test: PP1 phosphatase inhibitors, dose response, biochemical, fluorescence (AID 2394)

SMILES: CC[C@@H](C)[C@H](CNC)NC[C@@H](Cc1cccc2ccccc12)NCCc1cccc(C(F)(F)F)c1
AC50 [1]: 3.28 µM (active)
AC50 [2]: 8.08 µM (active)
EC50 [3]: > 150 µM (inconclusive)
AC50 (Paired box protein Pax-8): 11.9 µM (active)

Ki [4]: > 1.26 µM (inactive)
Ki [5]: > 7.94 µM (inactive)
Ki [6]: > 3.98 µM (inactive)
Ki [7]: > 5.01 µM (inactive)
Ki [8]: > 3.98 µM (inactive)
Ki [9]: > 10 µM (inactive)
Ki [10]: > 7.94 µM (inactive)
Ki [11]: > 2 µM (inactive)
Ki [12]: 7.94 µM (active)
Ki [13]: 2.51 µM (active)
Ki [14]: > 7.94 µM (inactive)
Ki [15]: > 7.94 µM (inactive)
Ki [16]: > 1.58 µM (inactive)
Ki [17]: 1.26 µM (active)
Ki [18]: > 10 µM (inactive)
Ki [19]: 6.31 µM (active)
Ki [20]: > 2 µM (inactive)
Ki [21]: > 10 µM (inactive)
Ki [22]: > 10 µM (inactive)
SMILES: CC(C)(CO)CNc1nccc(-c2c(-c3ccc(F)cc3)nc3c(CC4CC4)nccn23)n1

SMILES: O=[N+]([O-])c1c(Nc2ccccn2)cc(Cl)c2nonc12
AC50 (Caspase-7): 20.3 µM (active)
CC50 (Vero): 16.8 µM (active)

SMILES: Cc1ccc(C(=O)NC2(O)C(=O)c3ccccc3C2=O)cc1C
IC50 [23]: 4.4 µM (active)
IC50 [24]: > 67 µM (not active)
